Source: publication PMC6522510 (Nature Communications, 2019)
Where two headings read alike, the source gives them in different places.

Columns and labels:
Experiment in all cases: cells
Parameters in all cases: species or system AML cell lines (8); Secondary HTS, 10-point dose-response in triplicate, Cell Titer Glo viability, four-parameter fit EC50
MOLM-13 = details: Homo sapiens, read-out: MOLM-13
MV4-11 = details: Homo sapiens, read-out: MV4-11
CHRF288-11 = details: read-out: CHRF288-11
CMK = details: Homo sapiens, read-out: CMK
CMS = details: read-out: CMS
M07e = details: M-07e, read-out: M07e
ML-2 = details: Homo sapiens, read-out: ML-2
U937 = details: Homo sapiens, read-out: U937

Row | EC50 (MOLM-13; MOLM-13, 72 h) | EC50 (MV4-11; MV4-11, 72 h) | EC50 (U937; U-937, 72 h) | Compound | EC50 (CHRF288-11; 72 h) | EC50 (CMK; CMK, 72 h) | EC50 (CMS; 72 h) | EC50 (M07e; 72 h) | EC50 (ML-2; ML-2, 72 h) | EC50 (MOLM-13; 72 h cell viability) | EC50 (MV4-11; 72 h cell viability) | EC50 (CHRF288-11; 72 h cell viability) | EC50 (CMK; 72 h cell viability) | EC50 (CMS; 72 h cell viability) | EC50 (M07e; 72 h cell viability) | EC50 (ML-2; 72 h cell viability) | EC50 (U937; U-937, 72 h cell viability)
1 | 9.3 µM | 3.2 µM | > 10 µM | CCOc1cc(N2CCC(O)CC2)ccc1Nc1ncc2c(n1)N(C)c1ccccc1C(=O)N2C [SJ000821586, XMD 8-92] | > 10 µM | 2 µM | > 10 µM | > 10 µM | > 10 µM | – | – | – | – | – | – | – | –
2 | 6.4 µM | 6.4 µM | 6.5 µM | COC(=O)[C@H](CC(C)C)NC(=O)c1ccc(NC[C@@H](N)CS)cc1-c1cccc2ccccc12 [SJ000821624, GGTI 298] | > 10 µM | > 10 µM | > 10 µM | > 10 µM | > 10 µM | – | – | – | – | – | – | – | –
3 | 0.021 µM | 0.001 µM | 8.1 µM | CCCCNc1ncc2c(-c3ccc(CN4CCN(C)CC4)cc3)cn(C3CCC(O)CC3)c2n1 (stereo not drawn) [SJ000821849, UNC2025A] | 6.4 µM | 4.6 µM | > 10 µM | 8.2 µM | 5 µM | – | – | – | – | – | – | – | –
4 | > 10 µM | > 10 µM | > 10 µM | COc1ccc2nc3n[nH]c(C)c3c(NCCOCCO)c2c1 [SJ000832935, SCH 51344] | > 10 µM | > 10 µM | > 10 µM | > 10 µM | > 10 µM | – | – | – | – | – | – | – | –
5 | > 10 µM | > 10 µM | 10 µM | O=C(CCCCCCNC(=O)c1cnc(N(c2ccccc2)c2ccccc2)nc1)NO [SJ000833835, ROCILINOSTAT] | > 10 µM | 9.1 µM | > 10 µM | 2.7 µM | > 10 µM | – | – | – | – | – | – | – | –
6 | > 10 µM | > 10 µM | > 10 µM | O=C(NCC1(c2nc(-c3ccccc3)cs2)CCOCC1)c1cccc(-c2noc(C(F)(F)F)n2)c1 [SJ000833838, TMP269] | > 10 µM | > 10 µM | > 10 µM | 0.19 µM | > 10 µM | – | – | – | – | – | – | – | –
7 | > 10 µM | > 10 µM | > 10 µM | Cc1ccc(C(=O)c2cc(/C=C/C(=O)NO)n(C)c2)cc1 [SJ000833840, MC 1293] | > 10 µM | 8.7 µM | > 10 µM | 0.45 µM | > 10 µM | – | – | – | – | – | – | – | –
8 | > 10 µM | > 10 µM | 4.7 µM | C[C@@H]1COCCN1c1cc(C2(S(C)(=O)=O)CC2)nc(-c2cccc3[nH]ccc23)n1 [SJ000833844, AZ-20] | 2.5 µM | > 10 µM | 0.6 µM | 0.2 µM | 0.031 µM | – | – | – | – | – | – | – | –
9 | 0.0024 µM | > 10 µM | > 10 µM | O=C(CCN1CCN(C(=O)OCc2cc(Cl)cc(Cl)c2)CC1)c1ccc2[nH]c(=O)oc2c1 [SJ000833851, PF-8380] | > 10 µM | > 10 µM | > 10 µM | > 10 µM | > 10 µM | – | – | – | – | – | – | – | –
10 | 0.0068 µM | > 10 µM | > 10 µM | Cc1noc(-c2ccc(-c3ccc(CC(=O)O)cc3)cc2)c1NC(=O)O[C@H](C)c1ccccc1 [SJ000833854, AM-095] | > 10 µM | > 10 µM | > 10 µM | > 10 µM | > 10 µM | – | – | – | – | – | – | – | –
11 | 0.018 µM | > 10 µM | > 10 µM | Cc1noc(-c2ccc(-c3ccc(CC(=O)O)cc3)cc2)c1NC(=O)O[C@H](C)c1ccccc1Cl [SJ000833864, AM-966] | > 10 µM | > 10 µM | > 10 µM | > 10 µM | > 10 µM | – | – | – | – | – | – | – | –
12 | > 10 µM | > 10 µM | 3.9 µM | CN(c1ncccc1CNc1nc(Nc2ccc3c(c2)CC(=O)N3)ncc1C(F)(F)F)S(C)(=O)=O [SJ000833883, PF-00562271] | > 10 µM | 2.6 µM | > 10 µM | 6.2 µM | 0.5 µM | – | – | – | – | – | – | – | –
13 | > 10 µM | > 10 µM | > 10 µM | N#Cc1ccc(COC[C@H]2O[C@@H](n3c(NCc4ccc(Cl)c(Cl)c4)nc4c(N)ncnc43)[C@H](O)[C@@H]2O)cc1 [SJ000833885, VER-155008] | > 10 µM | > 10 µM | 5.9 µM | > 10 µM | > 10 µM | – | – | – | – | – | – | – | –
14 | > 10 µM | > 10 µM | > 10 µM | N[C@@H]1CCCN(c2c(/C=C3\SC(=O)NC3=O)cccc2-c2ccccc2)C1 [SJ000833889, AZD1208] | > 10 µM | > 10 µM | > 10 µM | > 10 µM | > 10 µM | – | – | – | – | – | – | – | –
15 | > 10 µM | > 10 µM | > 10 µM | O=c1cc(N2CCOCC2)oc2c(-c3cccc4c3sc3ccccc34)cccc12 [SJ000834137, NU 7441] | > 10 µM | > 10 µM | > 10 µM | 0.3 µM | > 10 µM | – | – | – | – | – | – | – | –
16 | – | – | – | O=C(Nc1ncc([N+](=O)[O-])s1)c1ccc([N+](=O)[O-])c(Cl)c1 [SJ000834139, SM-7368] | – | – | – | – | – | > 10 µM | > 10 µM | > 10 µM | > 10 µM | > 10 µM | > 10 µM | > 10 µM | 6.8 µM
17 | > 10 µM | > 10 µM | > 10 µM | CCOC(=O)C1=C(C)NC2=C(C(=O)CC(C)(C)C2)C1c1ccc(-c2ccccc2)cc1 (stereo not drawn) [SJ000834140, ITD-1] | > 10 µM | > 10 µM | > 10 µM | > 10 µM | > 10 µM | – | – | – | – | – | – | – | –
18 | 0.47 µM | > 10 µM | 3 µM | CCN1CCN(CC(=O)Nc2ccc(-c3cccc4c(=O)cc(N5CCOCC5)oc34)c3sc4ccccc4c23)CC1 [SJ000834141, KU-0060648] | 0.78 µM | 0.27 µM | 2.8 µM | 4 µM | 0.43 µM | – | – | – | – | – | – | – | –
19 | > 10 µM | > 10 µM | > 10 µM | Cc1ccc(NCCCc2ccccc2)c(N)c1 [SJ000834143, JSH-23] | > 10 µM | 8.7 µM | > 10 µM | > 10 µM | > 10 µM | – | – | – | – | – | – | – | –
20 | > 10 µM | > 10 µM | > 10 µM | O=C(Nc1cc(Cl)cc2c1[nH]c1cnccc12)c1cccnc1 [SJ000834145, PS-1145] | > 10 µM | > 10 µM | > 10 µM | > 10 µM | > 10 µM | – | – | – | – | – | – | – | –
21 | 0.19 µM | 0.19 µM | 0.19 µM | c1ccc2c(-c3cnn4cc(-c5ccc(N6CCNCC6)cc5)cnc34)ccnc2c1 [SJ000834146, LDN-193189] | 0.36 µM | 1.1 µM | 0.53 µM | 0.62 µM | 0.18 µM | – | – | – | – | – | – | – | –
22 | > 10 µM | > 10 µM | 6.7 µM | CC(C)c1cccc(C(C)C)c1N1C(=O)c2ccc(O)cc2C1=O [SJ000834149, 5HPP-33] | > 10 µM | > 10 µM | 8.4 µM | > 10 µM | 5.7 µM | – | – | – | – | – | – | – | –

Row | Compound | EC50 (MOLM-13; MOLM-13, 72 h) | EC50 (MV4-11; MV4-11, 72 h) | EC50 (U937; U-937, 72 h) | EC50 (CHRF288-11; 72 h) | EC50 (CMK; CMK, 72 h) | EC50 (CMS; 72 h) | EC50 (M07e; 72 h) | EC50 (ML-2; ML-2, 72 h) | EC50 (MOLM-13; 72 h cell viability) | EC50 (MV4-11; 72 h cell viability) | EC50 (CHRF288-11; 72 h cell viability) | EC50 (CMK; 72 h cell viability) | EC50 (CMS; 72 h cell viability) | EC50 (M07e; 72 h cell viability) | EC50 (ML-2; 72 h cell viability) | EC50 (U937; U-937, 72 h cell viability)
23 | CNC(=O)c1ccccc1Nc1nc(Nc2ccc(N3CCOCC3)cc2OC)ncc1Cl [SJ000822451, NVP-TAE226] | 0.7 µM | > 10 µM | 4.5 µM | 9.8 µM | 0.2 µM | > 10 µM | 7.6 µM | 2.5 µM | – | – | – | – | – | – | – | –
24 | CC(N[C@H]1C[C@@H]1c1ccccc1)c1ccc2c(c1)OCCO2 (stereo partly drawn) [SJ000832930, LSD1-C76] | > 10 µM | 0.001 µM | > 10 µM | > 10 µM | > 10 µM | > 10 µM | > 10 µM | > 10 µM | – | – | – | – | – | – | – | –
25 | COc1ccc(Cn2ccc3ccc(C(=O)NO)cc32)cc1 [SJ000833836, PCI 34051] | > 10 µM | > 10 µM | > 10 µM | > 10 µM | > 10 µM | 6.8 µM | > 10 µM | > 10 µM | – | – | – | – | – | – | – | –
26 | CC(C)(C#N)c1ccc(N2C(=O)OCc3cnc4ccc(-c5cnc6ccccc6c5)cc4c32)cc1 [SJ000833848, ETP-46464] | > 10 µM | > 10 µM | > 10 µM | 8.3 µM | 0.73 µM | 5.2 µM | > 10 µM | 3.6 µM | – | – | – | – | – | – | – | –
27 | C=CC(=O)Nc1cccc(Nc2nc(Nc3ccc(OCCOC)cc3)ncc2F)c1 [SJ000833882, CC-292 (AVL-292)] | > 10 µM | > 10 µM | 4.8 µM | > 10 µM | 4 µM | > 10 µM | 9.5 µM | > 10 µM | – | – | – | – | – | – | – | –
